pKi: −log10 of the molar value.
What was measured:
[1] = target: Thymidylate synthase (Homo sapiens, UniProt P04818)
Description: Inhibition of human thymidylate synthase A

[2] = target: Thymidylate synthase (Escherichia coli K-12, UniProt P0A884); assay: Inhibition of Escherichia coli thymidylate synthase A
[3] = target: T1, Dihydrofolate reductase (Homo sapiens, UniProt P00374); assay: Inhibition of human DHFR
T1 sequence (P00374 whole entry): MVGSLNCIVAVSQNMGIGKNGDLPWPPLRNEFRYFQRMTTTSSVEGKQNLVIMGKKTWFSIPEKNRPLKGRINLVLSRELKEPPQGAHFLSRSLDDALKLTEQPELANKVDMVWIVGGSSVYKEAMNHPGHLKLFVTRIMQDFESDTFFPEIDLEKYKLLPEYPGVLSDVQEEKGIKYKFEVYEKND

Sequence of Thymidylate synthase (Homo sapiens, UniProt P04818) (P04818 whole entry): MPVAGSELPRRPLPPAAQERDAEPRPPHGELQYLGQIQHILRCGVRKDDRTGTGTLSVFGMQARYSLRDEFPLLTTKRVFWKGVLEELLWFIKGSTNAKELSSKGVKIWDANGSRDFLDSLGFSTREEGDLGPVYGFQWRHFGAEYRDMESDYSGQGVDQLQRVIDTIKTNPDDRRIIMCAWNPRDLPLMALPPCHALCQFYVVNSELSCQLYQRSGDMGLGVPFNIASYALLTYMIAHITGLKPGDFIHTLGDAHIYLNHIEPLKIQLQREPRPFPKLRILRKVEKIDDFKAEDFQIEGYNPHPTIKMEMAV
Sequence of Thymidylate synthase (Escherichia coli K-12, UniProt P0A884) (P0A884 whole entry): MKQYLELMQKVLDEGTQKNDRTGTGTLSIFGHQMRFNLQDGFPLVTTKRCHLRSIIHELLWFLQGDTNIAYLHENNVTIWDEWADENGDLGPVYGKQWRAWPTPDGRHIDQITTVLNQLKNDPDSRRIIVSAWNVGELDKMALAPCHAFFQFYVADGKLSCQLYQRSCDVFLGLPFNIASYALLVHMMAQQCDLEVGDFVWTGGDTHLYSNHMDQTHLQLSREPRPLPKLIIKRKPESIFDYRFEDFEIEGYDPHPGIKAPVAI

## O=C1OCc2cccc3cccc1c23
[1]
  pKi: 4.33
[2]
  pKi: < 3.52

## N#CC(C#N)=c1c(=O)c2cccc3cccc1c32
[1]
  pKi: < 3.51
[2]
  pKi: < 3.53

## Cn1cc(-c2ccc(S(=O)(=O)Nc3cc4c5c(cccc5c3)C(=O)OC4=O)s2)cc1C(F)(F)F
[2]
  pKi: 5.72

## O=C1Oc2cccc3cccc1c23
[1]
  pKi: 5.38
[2]
  pKi: < 3.58

## O=C1Sc2cccc3cccc1c23
[1]
  pKi: 5.51
[2]
  pKi: < 3.71

## O=C1C(=O)c2ccc(Oc3ccc([N+](=O)[O-])cc3)c3cccc1c23
[1]
  pKi: < 4.01
[2]
  pKi: < 3.99

## O=C1/C(=N/c2ccccc2)c2cccc3cccc1c23
[1]
  pKi: < 3.51
[2]
  pKi: < 3.53

## Cc1ccc2c3c(cccc13)C(=O)CC2
[1]
  pKi: 5.51
[2]
  pKi: < 3.53

## CC1(C)C(=O)c2cccc3cccc(c23)C1=O
[1]
  pKi: 4.48
[2]
  pKi: < 3.23

## O=C1OC(c2ccccc2)(c2ccccc2)c2cccc3cccc1c23
[1]
  pKi: < 3.51
[2]
  pKi: < 3.53

## O=C1OC(=O)c2ccc(Cl)c3cccc1c23
[2]
  pKi: 3.98

## O=C(O)c1ccc2c3c(cccc13)C(=O)OC2=O
[2]
  pKi: 4.57

## O=C1OC(=O)c2ccc(S(=O)(=O)O)c3cccc1c23
[1]
  pKi: < 3.08
[2]
  pKi: < 3.11

## O=C1OC(=O)c2ccc(SCCO)c3cccc1c23
[1]
  pKi: < 3.32
[2]
  pKi: < 3.35

## CCOC(=O)CSc1ccc2c3c(cccc13)C(=O)OC2=O
[2]
  pKi: < 3.23

## Nc1ccc2c3c(cccc13)C(=O)OC2=O
[1]
  pKi: < 3.80
[2]
  pKi: < 3.82

## O=C1OC(=O)c2cc([N+](=O)[O-])cc3cccc1c23
[1]
  pKi: < 3.69
[2]
  pKi: < 3.71

## Nc1cc2c3c(cccc3c1)C(=O)OC2=O
[1]
  pKi: < 3.39
[2]
  pKi: 5.17

## O=C(Nc1cc2c3c(cccc3c1)C(=O)OC2=O)c1cccc([N+](=O)[O-])c1
[3]
  pKi: < 3.96
[2]
  pKi: 5.14

## O=C(Nc1cc2c3c(cccc3c1)C(=O)OC2=O)c1ccc([N+](=O)[O-])cc1
[2]
  pKi: 4.77

## Nc1ccc(C(=O)Nc2cc3c4c(cccc4c2)C(=O)OC3=O)cc1
[1]
  pKi: < 3.08
[2]
  pKi: 4.67

## O=C(Nc1cc2c3c(cccc3c1)C(=O)OC2=O)c1ccc(C(F)(F)F)cc1
[1]
  pKi: < 3.69
[2]
  pKi: 5.19

## O=C(Nc1cc2c3c(cccc3c1)C(=O)OC2=O)c1cccc(C(F)(F)F)c1
[2]
  pKi: 5.36

## O=C(Nc1cc2c3c(cccc3c1)C(=O)OC2=O)c1ccc(Cl)c([N+](=O)[O-])c1
[2]
  pKi: 5.40

## O=C(Nc1cc2c3c(cccc3c1)C(=O)OC2=O)c1ccc([N+](=O)[O-])o1
[2]
  pKi: 5.17

## O=C(Cc1cccs1)Nc1cc2c3c(cccc3c1)C(=O)OC2=O
[2]
  pKi: 5.28

## O=C(Nc1cc2c3c(cccc3c1)C(=O)OC2=O)c1sc2ccccc2c1Cl
[1]
  pKi: < 3.39
[3]
  pKi: < 4.26
[2]
  pKi: 5.19

## COC(=O)CCC(=O)Nc1cc2c3c(cccc3c1)C(=O)OC2=O
[2]
  pKi: 5.15

## O=C1OC(=O)c2cc(NS(=O)(=O)c3ccccc3)cc3cccc1c23
[2]
  pKi: 5.38

## O=C1OC(=O)c2cc(NS(=O)(=O)c3cccc([N+](=O)[O-])c3)cc3cccc1c23
[2]
  pKi: 5.68

## O=C1OC(=O)c2cc(NS(=O)(=O)c3ccc([N+](=O)[O-])cc3)cc3cccc1c23
[2]
  pKi: 5.92

## O=C1OC(=O)c2cc(NS(=O)(=O)c3cccs3)cc3cccc1c23
[2]
  pKi: 5.66

## O=C1OC(=O)c2cc(NS(=O)(=O)c3ccc(C(F)(F)F)cc3[N+](=O)[O-])cc3cccc1c23
[2]
  pKi: 5.89

## O=C1OC(=O)c2cc(NS(=O)(=O)c3ccc(S(=O)(=O)c4ccccc4)s3)cc3cccc1c23
[2]
  pKi: 5.92

## O=C1OC(=O)c2cc(NS(=O)(=O)c3cc(Cl)sc3Cl)cc3cccc1c23
[2]
  pKi: 5.34

## O=C1OC(=O)c2cc(NS(=O)(=O)c3cccc4ccccc34)cc3cccc1c23
[2]
  pKi: 5.96

## O=C1OC(=O)c2cc(NS(=O)(=O)c3cccc4cccnc34)cc3cccc1c23
[2]
  pKi: 5.54

## O=C1OC(=O)c2cc(NS(=O)(=O)c3cccc4nsnc34)cc3cccc1c23
[2]
  pKi: 6.05

## O=C(Nc1cc2c3c(cccc3c1)C(=O)OC2=O)c1ccc2c(c1)OCO2
[2]
  pKi: 5.13

## O=C(/C=C/c1ccccc1Cl)Nc1cc2c3c(cccc3c1)C(=O)OC2=O
[1]
  pKi: < 3.21
[2]
  pKi: 4.49

## O=C(/C=C/c1cccc(C(F)(F)F)c1)Nc1cc2c3c(cccc3c1)C(=O)OC2=O
[1]
  pKi: < 3.69
[2]
  pKi: 4.97

## Cc1onc(-c2ccccc2Cl)c1C(=O)Nc1cc2c3c(cccc3c1)C(=O)OC2=O
[1]
  pKi: < 3.08
[2]
  pKi: 4.35

## Cc1onc(-c2c(F)cccc2Cl)c1C(=O)Nc1cc2c3c(cccc3c1)C(=O)OC2=O
[3]
  pKi: < 3.48
[2]
  pKi: 5.21

## O=C1OC(=O)c2cc(NS(=O)(=O)/C=C/c3ccccc3)cc3cccc1c23
[2]
  pKi: 6.52

## O=C1OC(=O)c2cccc3cccc1c23 [1,8-NAPHTHALIC ANHYDRIDE]
[2]
  pKi: < 3.53
